Data set [1] has as its target T1, Amine oxidase [flavin-containing] B (Homo sapiens, UniProt P27338).
T1 sequence (P27338 whole entry): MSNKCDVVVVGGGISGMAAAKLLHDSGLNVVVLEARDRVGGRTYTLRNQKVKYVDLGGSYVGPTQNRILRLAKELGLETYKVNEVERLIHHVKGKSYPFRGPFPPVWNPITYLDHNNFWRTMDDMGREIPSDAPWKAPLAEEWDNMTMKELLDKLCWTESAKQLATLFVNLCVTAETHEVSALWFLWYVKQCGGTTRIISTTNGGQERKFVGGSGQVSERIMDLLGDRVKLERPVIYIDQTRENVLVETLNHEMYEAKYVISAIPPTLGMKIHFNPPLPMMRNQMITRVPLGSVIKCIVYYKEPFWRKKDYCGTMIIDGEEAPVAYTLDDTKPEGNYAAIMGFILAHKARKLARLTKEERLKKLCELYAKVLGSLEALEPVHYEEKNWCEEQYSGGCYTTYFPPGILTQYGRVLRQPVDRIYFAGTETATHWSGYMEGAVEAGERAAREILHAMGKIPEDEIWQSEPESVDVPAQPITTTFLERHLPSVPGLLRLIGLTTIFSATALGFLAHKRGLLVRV
The data set is described as follows: biochemical. It counts as cell-based, BTI-TN-5B1-4.
Description: Inhibition of recombinant human MAO-B expressed in baculovirus infected BTI-TN-5B1-4 insect cells using p-tyramine as substrate preincubated for 15 mins followed by substrate addition and measured over 20 mins by horse-radish peroxidase/Amplex Red coupled fluorimetric analysis

For data set [2], the target named is T2, Amine oxidase [flavin-containing] A (Homo sapiens, UniProt P21397).
T2 sequence (P21397 whole entry): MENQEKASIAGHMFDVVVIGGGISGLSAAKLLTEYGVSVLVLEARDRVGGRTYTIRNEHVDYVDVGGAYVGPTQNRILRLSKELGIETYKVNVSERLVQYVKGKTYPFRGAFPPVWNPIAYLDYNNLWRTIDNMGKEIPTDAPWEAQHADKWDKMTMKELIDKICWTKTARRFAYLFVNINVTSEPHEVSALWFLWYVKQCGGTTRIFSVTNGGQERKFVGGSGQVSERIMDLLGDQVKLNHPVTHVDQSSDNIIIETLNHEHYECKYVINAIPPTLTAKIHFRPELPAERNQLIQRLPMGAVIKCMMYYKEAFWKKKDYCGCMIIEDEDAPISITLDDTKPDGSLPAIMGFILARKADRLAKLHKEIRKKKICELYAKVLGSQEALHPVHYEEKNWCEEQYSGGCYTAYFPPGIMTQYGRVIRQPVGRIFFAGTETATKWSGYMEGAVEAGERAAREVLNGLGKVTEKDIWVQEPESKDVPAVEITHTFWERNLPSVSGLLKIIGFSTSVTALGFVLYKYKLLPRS
Description: Inhibition of recombinant human MAO-A expressed in baculovirus infected BTI-TN-5B1-4 insect cells using p-tyramine as substrate preincubated for 15 mins followed by substrate addition and measured over 20 mins by horse-radish peroxidase/Amplex Red coupled fluorimetric analysis.

For data set [3], the system named is SH-SY5Y. The data set is described as follows: Cytotoxicity against human SH-SY5Y cells assessed as reduction in metabolic activity up to 20 uM incubated for 24 hrs by MTS assay. The data set is classed as ADME, cell-based.
The target in data set [4] is T1, Amine oxidase [flavin-containing] B. Description: Competitive inhibition of recombinant human MAO-B expressed in baculovirus infected BTI-TN-5B1-4 insect cells using varying level of p-tyramine as substrate by Lineweaver-Burk plot analysis.
The nature of data set [5]: Cytotoxicity against human SH-SY5Y cells assessed as metabolic activity up to 100 uM incubated for 24 hrs by MTS assay relative to control. It counts as ADME, cell-based. As to conditions: read-out: Activity.
Data set [6] deals with SH-SY5Y. The data set is described as follows: Neuroprotective activity against 6-OHDA-induced cell death in human SH-SY5Y cells at 1 uM preincubated for 1 hr followed by 6-OHDA stimulation for 24 hrs by 7AAD staining based flow cytometric analysis. The data set is classed as functional. Conditions: time 25.0 hrs. Background: Flow cytometry measures light scatter and fluorescence of single cells or particles in a stream.

The subject of data set [7] is SH-SY5Y. Description: Cytotoxicity against human SH-SY5Y cells assessed as reduction in metabolic activity at 50 to 100 uM incubated for 24 hrs by MTS assay. The data set is classed as ADME, cell-based. Conditions: dose 50-100 µM. For orientation: Tetrazolium dyes change colour on reduction, which living cells bring about.

Calls of active or inactive are those of the source. The rule behind the calls is not given here. Where only a bound is given, the exact number is not on record here.

A word on the IC50: it is the concentration that inhibits the measured activity by half. In the case of `COc1ccc2c3c([nH]c2c1)C(C)=NCC3` [HARMALINE], the results for the IC50 in data set [1] and in data set [2] were > 100 µM and 0.0329 µM, respectively.

As for `c1ccc(-c2cnc3c4ncccc4nn3c2)cc1`, the IC50 is 88.3 µM in data set [1] and > 100 µM in data set [2].

For orientation: Ki means a measure of affinity in units of concentration, obtained from inhibition or displacement. As for `CSc1ccc(-c2cnc3c4ccccc4nn3c2)cc1`, the values for the IC50 in data set [1] and in data set [2] were 0.065 µM and > 100 µM, respectively. Further, the Activity result in data set [3] is reported as “Non-Toxic”. In addition, in data set [4], the Ki worked out at 0.0247 µM. Moreover, the viability at 24 h in data set [5] was > 85%.

`CC(=O)c1ccc(-c2cnc3c4cccnc4nn3c2)cc1`: the IC50 is 0.13 µM in data set [1] and > 100 µM in data set [2]. Besides, the Activity result in data set [3] is given as “Non-Toxic”. In addition, the Ki in data set [4] worked out at 0.0765 µM. Besides, the viability at 24 h in data set [5] was > 85%. In addition, in data set [6], the outcome was Active.

As for `c1csc(-c2cnc3c4cccnc4nn3c2)c1`, the IC50 is 4.48 µM in data set [1] and > 100 µM in data set [2].

As for `Brc1cnc2c3cccnc3nn2c1`, the IC50 in data set [1] and in data set [2] was > 100 µM in each case.

Regarding `CCOC(=O)c1ccccc1-c1cnc2c3nccnc3nn2c1`, the IC50 in data set [1] and in data set [2] was > 100 µM throughout.

Take `Fc1cccc2nn3cc(Br)cnc3c12`: the IC50 in data set [1] and in data set [2] was > 100 µM throughout.

Consider `Brc1cnc2c3ncccc3nn2c1`, for which the IC50 in data set [1] and in data set [2] was > 100 µM each time.

As to `Brc1ccc2nn3cc(Br)cnc3c2c1`, the IC50 in data set [1] and in data set [2] was > 100 µM throughout.

As to `CS(=O)(=O)c1ccc(-c2cnc3c4cccnc4nn3c2)cc1`, the IC50 is 5.7 µM in data set [1] and > 100 µM in data set [2].

As for `COc1ccc(-c2cnc3c4c(Cl)cccc4nn3c2)cc1`, the 50% inhibitory concentration (IC50) in data set [1] was 0.132 µM; in data set [2], > 100 µM. The Activity entry in data set [7] is “Toxic”.

Regarding `C(=C\c1cnc2c3cccnc3nn2c1)/c1ccccc1`, the results for the IC50 in data set [1] and in data set [2] were 0.837 µM and > 100 µM, respectively.

As to `COc1cccc(-c2cnc3c4cccnc4nn3c2)c1`, the figures for the IC50 in data set [1] and in data set [2] were 0.397 µM and > 100 µM, respectively.

Consider `O=[N+]([O-])c1ccc2nn3cc(Br)cnc3c2c1`, for which the 50% inhibitory concentration (IC50) in data set [1] and in data set [2] was > 100 µM in each case.

In the case of `FC(F)(F)c1cccc(-c2cnc3c4cccnc4nn3c2)c1`, the results for the IC50 in data set [1] and in data set [2] were 1.02 µM and > 100 µM, respectively.

With `COc1ccc(-c2cnc3c4ccccc4nn3c2)cc1`, the IC50 was 0.215 µM in data set [1] and > 100 µM in data set [2]. Besides, the Activity result in data set [3] is listed as “Non-Toxic”; in data set [7], “Toxic”.

`Brc1cnc2c3nccnc3nn2c1`: the IC50 in data set [1] and in data set [2] was > 100 µM in each case.

In the case of `COc1ccc(-c2cnc3c4cccnc4nn3c2)cc1`, the IC50 is 0.818 µM in data set [1] and > 100 µM in data set [2].

With `COc1ccc(-c2cnc3c4ncccc4nn3c2)cc1`, the figures for the IC50 in data set [1] and in data set [2] were 0.236 µM and > 100 µM, respectively. Besides, the Activity result in data set [3] is listed as “Non-Toxic”; in data set [7], “Toxic”. Besides, the Ki in data set [4] is 0.107 µM. Moreover, in data set [6], the result was Active.

Take `COc1ccc(-c2cnc3c4c(F)cccc4nn3c2)cc1`: the IC50 in data set [1] was 0.062 µM; in data set [2], > 100 µM. In addition, in data set [4], the Ki is 0.0337 µM. Also, the viability at 24 h in data set [5] was > 85%.

As to `Fc1ncccc1-c1cnc2c3ccccc3nn2c1`, the IC50 in data set [1] amounted to 0.648 µM; in data set [2] it was 21.1 µM.

`Fc1ccc(-c2cnc3c4cccnc4nn3c2)cn1`: the IC50 in data set [1] and in data set [2] was > 100 µM in each case.

As to `c1cnc2c(c1)nn1cc(-c3ccsc3)cnc21`, the IC50 was 14.8 µM in data set [1] and > 100 µM in data set [2].

For `Brc1ccc2c(c1)nn1cc(Br)cnc21`, the IC50 in data set [1] and in data set [2] was > 100 µM in each case.

On to `FC(F)(F)c1ccc2c(c1)nn1cc(Br)cnc21`, for which the IC50 was 1.17 µM in data set [1] and > 100 µM in data set [2].

In the case of `Clc1cccc2nn3cc(Br)cnc3c12`, the IC50 in data set [1] and in data set [2] was > 100 µM throughout.

Consider `CCOC(=O)c1ccc(-c2cnc3c4cccnc4nn3c2)cc1`, for which the values for the IC50 in data set [1] and in data set [2] were 0.822 µM and > 100 µM, respectively.

Turning to `COc1ccccc1-c1cnc2c3cccnc3nn2c1`, the IC50 in data set [1] is 3.79 µM; in data set [2], > 100 µM.

As to `Brc1cnc2c3ccccc3nn2c1`, the IC50 in data set [1] and in data set [2] was > 100 µM each time.

With `COc1ccc(-c2cnc3c4nccnc4nn3c2)cc1`, the IC50 in data set [1] was 1.25 µM; in data set [2], > 100 µM.

The record behind these values is ChEMBL document CHEMBL4706617, “Pyrimido[1,2-b]indazole derivatives: Selective inhibitors of human monoamine oxidase B with neuroprotective activity” (Eur J Med Chem, 2021).
